Values after ≈ are worked out from the molar mass of the structure shown. Where two headings read alike, the source gives them in different places.
Legend:
[1] = system: Aspergillus niger isolate of Pepsi; assay: 16 week MIC of un-complexed Pimaricin in 2% juice beverage, mold spores; format: cell-based; conditions: beverage pH 3.4, 25° C., 20 spores/ml, spores from Potato Dextrose 25 °C, read-out: 16 week incubation MIC
From the text: (§1) A 2% fruit juice based non-carbonated beverage of pH 3.4 and about 12 Brix was formed by combining the following ingredients.
(§2) The preparation of beverage was divided into two aliquots.
(§3) The tubes were sealed in a manner that prohibits moisture evaporation.
(§4) The mold spores employed were obtained from the following organisms. Aspergillus niger isolate of Pepsi; ATCC strain 90900 (Talaromyces spectabilis), ATCC strain 48441 (Pencillium galbrum), ATCC 24088 (Byssochlamys fulva), ATCC 96468 (Neosartorya fischeri) ATCC strain 96463 (Talaromyces flavus) and ATCC strain ATCC 10512 (Talaromyces flavus var. flavus). Each spore type was present at 20 spores per milliliter.

[2] = system: Penicillium glabrum ATCC 48441; assay: as above; format: cell-based; conditions: ATCC48441, beverage pH 3.4, 25° C., 20 spores/ml, spores from Potato Dextrose 25 °C, read-out: 16 week incubation MIC
From the text: as §1, §2, §3, §4

[3] = system: Neosartorya fischeri ATCC 96468; assay: as above; format: cell-based; conditions: Aspergillus fischeri, ATCC96468; beverage pH 3.4, 25° C., 20 spores/ml, spores from Potato Dextrose 25 °C; read-out: 16 week incubation MIC
From the text: as §1, §2, §3, §4

[4] = system: Talaromyces spectabilis ATCC 90900; assay: as above; format: cell-based; conditions: Paecilomyces variotii, ATCC90900; beverage pH 3.4, 25° C., 20 spores/ml, spores from Potato Dextrose 25 °C; read-out: 16 week incubation MIC
From the text: as §1, §2, §3, §4

[5] = system: Tataromyces flavus ATCC 96463; assay: as above; format: cell-based; conditions: Talaromyces flavus, ATCC96463; beverage pH 3.4, 25° C., 20 spores/ml, spores from Potato Dextrose 25 °C; read-out: 16 week incubation MIC
From the text: as §1, §2, §3, §4

[6] = system: Talaromyces flavus var flavus ATCC 10512; assay: as above; format: cell-based; conditions: ATCC10512, beverage pH 3.4, 25° C., 20 spores/ml, spores from Potato Dextrose 25 °C, read-out: 16 week incubation MIC
From the text: as §1, §2, §3, §4

physchem = format: physicochemical
From the text: as §1, §2

[7] = system: Byssochlamys fulva ATCC 10099; assay: 16 week MIC of un-complexed Pimaricin in 2% juice beverage, mold spores; format: cell-based; conditions: Paecilomyces fulvus, ATCC10099; beverage pH 3.4, 25° C., 20 spores/ml, spores from Potato Dextrose 25 °C; read-out: 16 week incubation MIC
[8] = system: Saccharomyces cerevisiae Pepsi Isolate; assay: Growth inhibitory effect of Pimaricin, beverage medium containing 5% DMSO; format: cell-based; conditions: 5% DMSO beverage pH 3.4, 25° C., PDA, read-out: Observed MIC (16 week)
From the text: as §1, §2
(§5) The second aliquot of beverage is identical to the first aliquot except for the presence of pimaricin. It also contains 5% DMSO. […] The tubes were sealed in a manner that prohibits moisture evaporation.
(§6) Yeast employed in the study are Zygosaccharomyces bisporus (ATCC 52407) Zygosaccharomyces bailii (ATCC 60484), Saccharomyces cerevisiae (Pepsi Isolate Y99), Brettanomyces (Pepsi Isolate Chemy 7UP), and Zygosaccharomyces (Pepsi Isolate Y2).
(§7) The mold spores employed were obtained from the following organisms Paecilomyces variotii (Pepsi isolate D16), Penicillium camembertii (Pepsi isolate M3), (Talaromyces flavus var. flavus (ATCC 10512), Byssochlamys nieva (ATCC 36614), and Byssochlamys fulva ATCC 10099). Each spore type was present initially at 20 spores per milliliter of product. Spores for a couple of strains of mold (such as Byssochlamys nieva) were developed at both 25° C. on Potato Dextrose and 30° C. on Malt Extract in order to ensure some variation in the ratio of asci (ascospores) to conidiospores.

[9] = system: Byssochlamys fulva ATCC 10099; assay: as above; format: cell-based; conditions: Paecilomyces fulvus, ATCC10099, pH 3.4, 5% DMSO beverage pH 3.4, 25° C., read-out: Observed MIC (16 week)
From the text: as §1, §2, §5, §6, §7

[10] = system: Brettanomyces Pepsi Isolate; assay: as above; format: cell-based; conditions: 2688 h, 5% DMSO beverage pH 3.4, 25° C., PDA, read-out: Observed MIC (16 week)
From the text: as §1, §2, §5, §6, §7

[11] = system: Penicillium camembertii Pepsi Isolate; assay: as above; format: cell-based; conditions: pH 3.4, 5% DMSO beverage pH 3.4, 25° C., read-out: Observed MIC (16 week)
From the text: as §1, §2, §5, §6, §7

[12] = system: Byssochlamys nieva ATCC 36614; assay: as above; format: cell-based; conditions: 2688 h; 5% DMSO beverage pH 3.4, 25° C.; spores generated on PDA at 25 °C; read-out: Observed MIC (16 week)
From the text: as §1, §2, §5, §6, §7

[13] = system: Zygosaccharomyces bisporus ATCC 52407; assay: as above; format: cell-based; conditions: ATCC52407, 5% DMSO beverage pH 3.4, 25° C., PDA, read-out: Observed MIC (16 week)
From the text: as §1, §2, §5, §6, §7

[14] = system: Zygosaccharomyces bailli Pepsi Isolate; assay: as above; format: cell-based; conditions: 5% DMSO beverage pH 3.4, 25° C., PDA, read-out: Observed MIC (16 week)
From the text: as §1, §2, §5, §6, §7

[15] = system: Talaromyces flavus var flavus ATCC 10512; assay: as above; format: cell-based; conditions: spores generated on PDA at 25 °C
From the text: as §1, §2, §5, §6, §7

[16] = system: Zygosaccharomyces bailli ATCC 60484; assay: as above; format: cell-based; conditions: ATCC60484, 5% DMSO beverage pH 3.4, 25° C., PDA, read-out: Observed MIC (16 week)
From the text: as §1, §2, §5, §6, §7

[17] = system: Paecilomyces variotii Pepsi Isolate; assay: as above; format: cell-based; conditions: pH 3.4, 5% DMSO beverage pH 3.4, 25° C., read-out: Observed MIC (16 week)
From the text: as §1, §2, §5, §6, §7

[18] = 25° C., pH approximately 6.4; cited from earlier work
mold fungi = assay: Preservation of beverage product for 16 weeks, Pimaricin stand alone; format: cell-based; conditions: Pimaricin as the only antimicrobial substance (stand alone)
[19] = spores generated on MEA at 30 °C
[20] = spores generated on PDA at 25 °C

Molecule `C[C@@H]1C/C=C/C=C/C=C/C=C/[C@H](O[C@@H]2O[C@H](C)[C@@H](O)[C@H](N)[C@@H]2O)C[C@@H]2O[C@](O)(C[C@@H](O)C[C@H]3O[C@@H]3/C=C/C(=O)O1)C[C@H](O)[C@H]2C(=O)O` [Pimaricin] has an MIC [1] of 18.4 µg/mL, an MIC [2] of 5.7 µg/mL and an MIC [3] greater than 20 µg/mL. The MIC [4] was 10.3 µg/mL, the MIC [5] was greater than 20 µg/mL and the MIC [6] was greater than 20 µg/mL. For the same molecule, the solubility (physchem; 4 °C, pH 3.4, aqueous buffer, thermodynamic from solid, solubility limit in high acid beverage) was 10 µg/mL (≈ 15 µM), the solubility at 24 h (physchem; 25 °C, pH 3.4, aqueous buffer, thermodynamic from solid, solubility limit in high acid beverage) was 20 µg/mL (≈ 30 µM) and the “solubility limit in high acid beverage” value (physchem; 24 h, pH 3.4) was “about 20 mg/L”. The MIC [7] was 16.9 µg/mL, the MIC [8] was 2.5 µg/mL (≈ 3.76 µM) and the MIC [9, 19] was 7.9 µg/mL (≈ 11.9 µM). The MIC [9, 20] was 2 µg/mL (≈ 3 µM), the MIC [10] was 2.5 µg/mL (≈ 3.76 µM) and the MIC [11, 19] was 65 µg/mL (≈ 97.6 µM). For the same molecule, the MIC [11, 20] was 6.4 µg/mL (≈ 9.61 µM), the MIC [12] was 46 µg/mL (≈ 69.1 µM) and the MIC [13] was 2.5 µg/mL (≈ 3.76 µM). For the same molecule, the MIC [14] was 2.5 µg/mL (≈ 3.76 µM), the “Observed MIC (16 week)” value ([15]; 5% DMSO beverage pH 3.4, 25° C.) was greater than 72 ppm and the MIC ([15]; Talaromyces flavus, ATCC10512, pH 3.4, 5% DMSO beverage pH 3.4, 25° C., read-out: Observed MIC (16 week)) was 72 µg/mL (≈ 108 µM). It also gave an MIC [16] of 2.5 µg/mL (≈ 3.76 µM), an MIC [17, 19] greater than 72 µg/mL and an MIC [17, 20] of 58.3 µg/mL (≈ 87.6 µM). The “solubility in pure water” value [18] was 0.052 mg/mL (≈ 78.1 µM) and the “minimum initial concentration needed to preserve product for 16 weeks” value (mold fungi) was 280 mg Pimaricin per liter.
